Assay results: the supplement of paper PMC10883282
± gives the standard deviation of the averaged measurements.

What was measured:
Assay in all cases: relative viability vs DMSO control (72 h) (fraction); higher = more viable cells
G401 = test system: G401
How it was run: (§1)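 Densities for seeding sarcoma cell lines into 384-well plates were set to give 80–90% confluence. After 24 h, 2.5 µl of serially diluted compound from source plates of 10 mM to 0.0002 mM went in, and plates stayed 72 h at 37 °C in 5% CO2 with 0.1% DMSO vehicle and a 5 µM positive control. Percent growth from ATPLite readings, averaged over up to triplicate wells, served as relative viability, rescaled so 1 means full and 0 means none.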

HT1080 = test system: HT1080
How it was run: as §1

KHOS-NP = test system: KHOS-NP
How it was run: as §1

MES-SA = test system: MES-SA
How it was run: as §1

RD-ES = test system: RD-ES
How it was run: as §1

RD = test system: RD
How it was run: as §1

SK-ES-1 = test system: SK-ES-1
How it was run: as §1

SK-LMS-1 = test system: SK-LMS-1
How it was run: as §1

SW1353 = test system: SW1353
How it was run: as §1

SW684 = test system: SW684
How it was run: as §1

SW872 = test system: SW872
How it was run: as §1

VA-ES-BJ = test system: VA-ES-BJ
How it was run: as §1

C[C@H](Nc1ncnc2nc[nH]c12)c1cc2cccc(Cl)c2c(=O)n1-c1ccccc1 [Duvelisib]
Settings | relative viability
G401, 0.00017 µM | 1.07 ± 0.013
G401, 0.00051 µM | 1.03 ± 0.022
G401, 0.00152 µM | 1.05 ± 0.019
G401, 0.00457 µM | 1.017 ± 0.0084
G401, 0.01372 µM | 0.987 ± 0.023
G401, 0.04115 µM | 0.983 ± 0.033
G401, 0.1235 µM | 0.966 ± 0.03
G401, 0.3704 µM | 0.9339 ± 0.0075
G401, 1.111 µM | 0.862 ± 0.027
G401, 3.333 µM | 0.763 ± 0.018
G401, 10 µM | 0.593 ± 0.018
HT1080, 0.00017 µM | 1.11 ± 0.025
HT1080, 0.00051 µM | 1.14 ± 0.043
HT1080, 0.00152 µM | 1.13 ± 0.019
HT1080, 0.00457 µM | 1.126 ± 0.0042
HT1080, 0.01372 µM | 1.08 ± 0.072
HT1080, 0.04115 µM | 1.14 ± 0.043
HT1080, 0.1235 µM | 1.124 ± 0.0096
HT1080, 0.3704 µM | 1.138 ± 0.01
HT1080, 1.111 µM | 1.147 ± 0.0097
HT1080, 3.333 µM | 1.13 ± 0.025
HT1080, 10 µM | 1.07 ± 0.037
KHOS-NP, 0.00017 µM | 1.09 ± 0.033
KHOS-NP, 0.00051 µM | 1.09 ± 0.035
KHOS-NP, 0.00152 µM | 1.1 ± 0.034
KHOS-NP, 0.00457 µM | 1.1 ± 0.024
KHOS-NP, 0.01372 µM | 1.121 ± 0.0098
KHOS-NP, 0.04115 µM | 1.09 ± 0.026
KHOS-NP, 0.1235 µM | 1.07 ± 0.034
KHOS-NP, 0.3704 µM | 1.07 ± 0.011
KHOS-NP, 1.111 µM | 1.08 ± 0.019
KHOS-NP, 3.333 µM | 1.07 ± 0.037
KHOS-NP, 10 µM | 1.07 ± 0.028
MES-SA, 0.00017 µM | 0.98 ± 0.036
MES-SA, 0.00051 µM | 0.961 ± 0.019
MES-SA, 0.00152 µM | 0.964 ± 0.017
MES-SA, 0.00457 µM | 0.944 ± 0.041
MES-SA, 0.01372 µM | 0.906 ± 0.043
MES-SA, 0.04115 µM | 0.9422 ± 0.0037
MES-SA, 0.1235 µM | 0.923 ± 0.073
MES-SA, 0.3704 µM | 0.849 ± 0.045
MES-SA, 1.111 µM | 0.77 ± 0.0065
MES-SA, 3.333 µM | 0.631 ± 0.016
MES-SA, 10 µM | 0.453 ± 0.019
RD, 0.00017 µM | 1.08 ± 0.037
RD, 0.00051 µM | 1.1 ± 0.031
RD, 0.00152 µM | 1.13 ± 0.043
RD, 0.00457 µM | 1.11 ± 0.041
RD, 0.01372 µM | 1.12 ± 0.046
RD, 0.04115 µM | 1.11 ± 0.034
RD, 0.1235 µM | 1.08 ± 0.044
RD, 0.3704 µM | 1.07 ± 0.045
RD, 1.111 µM | 0.994 ± 0.011
RD, 3.333 µM | 0.84 ± 0.03
RD, 10 µM | 0.619 ± 0.013
RD-ES, 0.00017 µM | 0.991 ± 0.012
RD-ES, 0.00051 µM | 1.01 ± 0.026
RD-ES, 0.00152 µM | 1.04 ± 0.032
RD-ES, 0.00457 µM | 1.04 ± 0.022
RD-ES, 0.01372 µM | 1.02 ± 0.014
RD-ES, 0.04115 µM | 0.996 ± 0.016
RD-ES, 0.1235 µM | 0.956 ± 0.029
RD-ES, 0.3704 µM | 0.932 ± 0.031
RD-ES, 1.111 µM | 0.845 ± 0.046
RD-ES, 3.333 µM | 0.726 ± 0.05
RD-ES, 10 µM | 0.551 ± 0.011
SK-ES-1, 0.00017 µM | 1.09 ± 0.042
SK-ES-1, 0.00051 µM | 1.07 ± 0.056
SK-ES-1, 0.00152 µM | 1.06 ± 0.071
SK-ES-1, 0.00457 µM | 1.05 ± 0.059
SK-ES-1, 0.01372 µM | 1.02 ± 0.066
SK-ES-1, 0.04115 µM | 0.968 ± 0.069
SK-ES-1, 0.1235 µM | 0.99 ± 0.06
SK-ES-1, 0.3704 µM | 0.96 ± 0.026
SK-ES-1, 1.111 µM | 0.8914 ± 0.0054
SK-ES-1, 3.333 µM | 0.768 ± 0.035
SK-ES-1, 10 µM | 0.564 ± 0.019
SK-LMS-1, 0.00017 µM | 1.05 ± 0.032
SK-LMS-1, 0.00051 µM | 1.04 ± 0.07
SK-LMS-1, 0.00152 µM | 1.08 ± 0.043
SK-LMS-1, 0.00457 µM | 1.05 ± 0.018
SK-LMS-1, 0.01372 µM | 1.03 ± 0.046
SK-LMS-1, 0.04115 µM | 0.9363 ± 0.0039
SK-LMS-1, 0.1235 µM | 0.91 ± 0.017
SK-LMS-1, 0.3704 µM | 0.811 ± 0.041
SK-LMS-1, 1.111 µM | 0.688 ± 0.014
SK-LMS-1, 3.333 µM | 0.572 ± 0.025
SK-LMS-1, 10 µM | 0.438 ± 0.018
SW684, 0.00017 µM | 1.15 ± 0.036
SW684, 0.00051 µM | 1.11 ± 0.024
SW684, 0.00152 µM | 1.09 ± 0.041
SW684, 0.00457 µM | 0.899 ± 0.015
SW684, 0.01372 µM | 0.838 ± 0.034
SW684, 0.04115 µM | 0.722 ± 0.06
SW684, 0.1235 µM | 0.683 ± 0.018
SW684, 0.3704 µM | 0.633 ± 0.013
SW684, 1.111 µM | 0.543 ± 0.046
SW684, 3.333 µM | 0.501 ± 0.03
SW684, 10 µM | 0.453 ± 0.016
SW872, 0.00017 µM | 1.11 ± 0.044
SW872, 0.00051 µM | 1.1 ± 0.055
SW872, 0.00152 µM | 1.08 ± 0.049
SW872, 0.00457 µM | 1.11 ± 0.067
SW872, 0.01372 µM | 1.08 ± 0.072
SW872, 0.04115 µM | 1.03 ± 0.056
SW872, 0.1235 µM | 1.02 ± 0.047
SW872, 0.3704 µM | 0.897 ± 0.05
SW872, 1.111 µM | 0.813 ± 0.046
SW872, 3.333 µM | 0.666 ± 0.012
SW872, 10 µM | 0.519 ± 0.03
SW1353, 0.00017 µM | 1.074 ± 0.0076
SW1353, 0.00051 µM | 1.06 ± 0.025
SW1353, 0.00152 µM | 1.03 ± 0.029
SW1353, 0.00457 µM | 1.02 ± 0.034
SW1353, 0.01372 µM | 1.02 ± 0.025
SW1353, 0.04115 µM | 0.996 ± 0.013
SW1353, 0.1235 µM | 0.915 ± 0.012
SW1353, 0.3704 µM | 0.885 ± 0.043
SW1353, 1.111 µM | 0.786 ± 0.042
SW1353, 3.333 µM | 0.761 ± 0.034
SW1353, 10 µM | 0.614 ± 0.084
VA-ES-BJ, 0.00017 µM | 1.09 ± 0.05
VA-ES-BJ, 0.00051 µM | 1.1 ± 0.051
VA-ES-BJ, 0.00152 µM | 1.09 ± 0.027
VA-ES-BJ, 0.00457 µM | 1.1 ± 0.017
VA-ES-BJ, 0.01372 µM | 1.08 ± 0.04
VA-ES-BJ, 0.04115 µM | 1.06 ± 0.029
VA-ES-BJ, 0.1235 µM | 1.01 ± 0.018
VA-ES-BJ, 0.3704 µM | 0.941 ± 0.032
VA-ES-BJ, 1.111 µM | 0.834 ± 0.027
VA-ES-BJ, 3.333 µM | 0.688 ± 0.051
VA-ES-BJ, 10 µM | 0.48 ± 0.036
